Results as given in patent EP0149140A2, “Novel compounds” (BEECHAM GROUP PLC, priority 1983, dated 1985).

Test system: E coli B44 (09:K90:K99)
Assay: Protection of Neonatal Mice from Lethal Enteropathogenic E coli Infection
Format: in vivo
Details: 4 day old mice, % reduction in mortality vs placebo, 10 days; for Protection %: Table 2, 10 mg/kg (dose of hydrochloride salt) b.i.d. for four days commencing 16 hours after infection; for inhibition in vivo at 0.08 mg/kg: 0.08 mg/kg (dose of hydrochloride salt) b.i.d. for four days commencing 16 hours after infection; for inhibition in vivo at 0.4 mg/kg: 0.4 mg/kg (dose of hydrochloride salt) b.i.d. for four days commencing 16 hours after infection; for inhibition in vivo at 2 mg/kg: 2 mg/kg (dose of hydrochloride salt) b.i.d. for four days commencing 16 hours after infection
Procedure: 4 day old mice were dosed orally with 50µl of phosphate buffered saline containing 1 x 10^5 organisms/ml of E coli B44 (09:K90:K99) an enteropathogenic strain originally isolated from a scouring calf. The mice were then dosed b.i.d. with either placebo or drug as the hydrochloride salt for four days commencing 16 hours after infection. The animals were left with their mothers throughout the experiment and a daily record of deaths were made. The experiment was terminated 10 days after infection of the mice.
The mortality in the drug group was then compared with the mortality in the placebo group using the following formula:- [formula] where Mp = mortality in group receiving placebo Md = mortality in group receiving drug
Statistical analysis was performed using 2 x 2 contingency tables (single tailed 'p'). Results are given in Tables 1 and 2. 'Protection %' is the same as '% Reduction in mortality' above.

[1] = Mus musculus, intraduodenal, 240 h, Table 1

SMILES | inhibition in vivo at 0.08 mg/kg [1] [%] | inhibition in vivo at 0.4 mg/kg [1] [%] | inhibition in vivo at 2 mg/kg [1] [%] | further results
CN=C(Nc1ccc(C)c(N=C2NCCN2)c1)SC |  |  |  | Protection %: 13%
CSC(=NCc1ccc(F)cc1)Nc1cc(Cl)c(N=C2NCCN2)c(Cl)c1 | 29 |  |  | inhibition in vivo at 0.04 mg/kg (Mus musculus, intraduodenal, 240 h, Table 1, 0.04 mg/kg (dose of hydrochloride salt) b.i.d. for four days commencing 16 hours after infection): 40%
CN=C(Nc1cc(Cl)c(N=C2NCCN2)c(Cl)c1)SC | 22 | 26 | 13 | 
CNC(=S)Nc1cc(C)c(N=C2NCCN2)c(C)c1 |  | 43 | 69 | 
S=C(NCc1ccccc1)Nc1cc(Cl)c(N=C2NCCN2)c(Cl)c1 |  | 21 |  | 
CNC(=S)Nc1cc(Cl)c(N=C2NCCN2)c(Cl)c1 | 6 | 6 |  | 
S=C(Nc1cc(Cl)c(N=C2NCCN2)c(Cl)c1)NC1CCCCC1 | 6 |  |  | 
Cc1cc(NC(=S)NCc2ccc(F)cc2)cc(C)c1N=C1NCCN1 |  |  | 11 | 
CSC(=Nc1cc(Cl)c(N=C2NCCN2)c(Cl)c1)N(C)C | 13 |  |  | 
CNC(=S)Nc1ccc(C)c(N=C2NCCN2)c1 |  |  |  | Protection %: 5%
